Laboratory results reported in patent publication US8648047B2, “Methods and compositions for inhibition of multi-drug resistance by hyaluronan oligomers” (Tufts University, priority 2002, dated 2014).

Legend:
[1] = system: α-isoform of PI3 kinase in HCT116 cells; assay: PI3 kinase α isoform assay (immunoprecipitated); assay type: cell-based, human; settings: same reagents as FIG. 5D
Protocol: (§4) PI3 kinase assay. For assay of total PI3 kinase, 250 ng of cell lysate protein were used per assay. Assays were performed in a 50 μl reaction mixture containing 0.001% Nonidet P-40, 159 μM ATP, 25 mM MgCl2, 5 mM EGTA, 150 μM ATP, 25 μCi of [γ-^32P] ATP, 125 mM MOPS, pH 7.0, and 0.2 mg/ml sonicated lipids containing phosphatidyl serine, phosphatidyl inositol and phosphatidyl inositol-4,5 bisphosphate in a 1:1:1 (v:v:v) ratio in sonication buffer (25 mM MOPS, pH 7.0, 1 mm EGTA) (Whitman, M. et al (1985) Nature 315, 239-242; Susa, M., et al. (1992) J Biol Chem 267, 22951-22956; Misra, S., et al. (1998) J Biol Chem 273, 26638-26644). The reactions were carried out at 37° C. for 20 min and stopped by addition of 100 μl of CH3OH/1M HCl (1:1). […] The organic layers were combined, dried under nitrogen, and analyzed by thin layer chromatography. ^32P-labeled phosphoinositides were resolved in water:acetic acid:n-propanol (34:1:65) and detected by autoradiography. ^32P incorporation into phosphatidylinositol 3,4,5-phosphate (PIP3) was quantified by liquid scintillation counting of thin layer chromatography spots scraped into and eluted in scintillation fluid.
(§5) For assay of specific PI3 kinase isoforms, whole cell lysates were incubated with antibody against the particular isoform plus protein A-Sepharose. PI3 kinase activity of the enzyme immobilized on beads was then measured as described above.

[2] = system: phosphorylated Akt in TA3/St cells; assay: Akt phosphorylation, Western blotting; assay type: cell-based, mouse; settings: 150 μg/ml controls, 1:50 antibody to CD44 (FIG. 6C)
Protocol: FIG. 6A is a bar graph showing inhibition of Akt phosphorylation by hyaluronan oligomers in TA3/St murine mammary carcinoma cells treated in suspension with 1-150 μg/ml hyaluronan oligomers (o-HA) or 150 μg/mlchondroitin sulfate (CS). Cell lysates were then analyzed by Western blotting for phosphorylated Akt and quantified by densitometry. Results in A and B are presented as means of three independent experiments and expressed as percent untreated±S.D.
FIG. 6C is a representation of a Western blot of phosphorylated Akt from TA3/St cells: 1. untreated; 2. 150 μg/ml chondroitin sulfate; 3. 150 μg/ml hyaluronan polymer (mol. wt. ˜80 kDa); 4. 150 μg/ml chitin oligomers; 5. 50 μg/ml hyaluronan oligomers; 6. 150 μg/ml hyaluronan oligomers; 7. 50 nM wortmannin; 8. 20 μM LY294002; 9. 1:50 dilution of antibody against CD44. Results are representative of three experiments. Similar results to those in FIG. 6C were obtained also with HCT116 cells.
(§1) Treatment of tumor cells and preparation of cell lysates for biochemical assays. TA3/St and HCT116 cells were grown for 72 hours in 14 cm culture dishes, then harvested by trypsinization, washed in PBS and suspended in DMEM containing 10% FBS. […]
(§2) Immunoblotting. […] Immunoreactive bands were detected by enhanced chemiluminescence and the sizes of proteins were estimated using prestained molecular weight standards. Immunoreactive bands were quantified by densitometry. […]

[3] = system: TA3/St murine mammary carcinoma cells; assay: Apoptosis assay in suspension culture; assay type: cell-based, mouse; settings: 24 hours in suspension; 150 μg/ml controls, 50 nM wortmannin
Protocol: FIG. 3 is a bar graph showing induction of apoptosis by hyaluronan oligomers under anchorage-independent conditions. TA3/St murine mammary carcinoma cells were grown in suspension in serum-free medium for 24 hours in the presence of 50 or 150 μg/ml hyaluronan oligomers (o-HA), 150 μg/ml of ˜80 kDa molecular weight hyaluronan polymer (HA-80), 150 μg/ml chitin oligomers, 150 μg/ml chondroitin sulfate (CS), or 50 nM wortmannin (WM), a specific inhibitor of mammalian PI3 kinase (phosphoinositide 3-kinase). Apoptotic cells were then analyzed and counted as described in the EXAMPLES section. Results represent the average of two experiments and are expressed as percentage of total cells±range.
as §1, with “FBS. Two million cells from these cultures were added to each well of non-adherent, Ultra-low cluster plates and incubated in suspension at 37° C. for a further 72 hours.” for “FBS.”
Apoptosis assay. […] Viable cells (green) and apoptotic cells containing fragmented nuclei (red) were counted and the percentage of apoptotic cells was then calculated.

[4] = system: caspase-3 activity in HCT116 human colon carcinoma cells; assay: Caspase-3 assay; assay type: cell-based; settings: HCT116, 150 μg/ml
Protocol: (§3) Treatment of tumor cells and preparation of cell lysates for biochemical assays. TA3/St and HCT116 cells were grown for 72 hours in 14 cm culture dishes, then harvested by trypsinization, washed in PBS and suspended in DMEM containing 10% FBS. Two million cells from these cultures were added to each well of non-adherent, Ultra-low cluster plates and incubated in suspension at 37° C. for a further 72 hours. The cells from each well were then collected, washed in PBS, suspended in 5 ml DMEM medium containing 2% bovine serum albumin (Cohn Analog, Sigma), re-plated in the cluster plates, and incubated in suspension at 37° C. for 96 hours; similar results were obtained with pre-incubations of 24-96 hours for most measurements. The hyaluronan oligomers or other reagents were then added and the cells incubated for another 24 hours in suspension.
The cells treated as above were harvested by centrifugation at room temperature. The pellets were washed twice in PBS, then lysed in buffer containing 1% Nonidet P-40 and protease inhibitors. Cell lysis was achieved by vortexing for three cycles of 15 sec at high speed followed by cooling on ice. The lysate was centrifuged at 12,000×g for 15 min at 4° C. in an Eppendorf 5415R centrifuge. After measuring the protein content of the supernatant, it was flash-frozen in liquid nitrogen and stored at −80° C. until use in the assays below.
Caspase-3 assay. […]

PTEN in TA3/St cells = assay: PTEN expression, immunoblotting; assay type: cell-based, mouse; settings: similar amounts (150 μg/ml) of controls
Protocol: FIG. 8A is a bar graph showing stimulation of expression of PTEN, a tumor suppressor, by HA-oligomers, in TA3/St murine mammary carcinoma cells. Cells were treated in suspension and then processed for immunoblotting of PTEN. The bars represent densitometric quantification of immunoblots after treatment with 10-150 μg/ml hyaluronan oligomers (o-HA) or 150 μg/ml chondroitin sulfate (CS). Results are presented as means of three independent experiments and expressed as percent untreated±S.D.
FIG. 8C is an immunoblot using TA3/St murine mammary carcinoma cells treated as in lanes: 1. untreated; 2. 150 μg/ml chondroitin sulfate; 3. 150 μg/ml chitin oligomers; 4. 150 μg/ml hyaluronan polymer (mol. wt. ˜80 kDa); 5. 50 μg/ml hyaluronan oligomers; 6. 150 μg/ml hyaluronan oligomers. Results are representative of three experiments. Similar results to FIG. 8C were obtained also with HCT116 cells.
PTEN levels in TA3/St mouse mammary carcinoma cells were measured by Western blotting; values were obtained by scanning the blots. HA oligomers (oligo) at 50-100 μg/ml caused ˜6-fold increase in PTEN levels compared to untreated control. […]
as §2

[5] = system: caspase-3 activity in TA3/St murine mammary carcinoma cells; assay: Caspase-3 assay; assay type: cell-based, mouse; settings: 150 μg/ml
Protocol: FIG. 4A is a bar graph showing stimulation of caspase-3 activity in TA3/St murine mammary carcinoma cells by hyaluronan oligomers. Cells were grown in suspension in serum-free medium for 24 hours in the presence of 10, 50 or 150 μg/ml hyaluronan oligomers (o-HA), 150 μg/ml chondroitin sulfate (CS), or 20 μM LY294002 (LY), a specific inhibitor of mammalian PI3 kinase, and then analyzed for caspase-3 activity. Results are presented as the mean of specific activity (absorbance at 405 nm/mg/90 min)±S.D. for three independent experiments.
as §3, with “suspension. […]” for “suspension.”

[6] = system: α-isoform of PI3 kinase in TA3/St cells; assay: PI3 kinase α isoform assay (immunoprecipitated); assay type: cell-based, mouse; settings: 150 μg/ml polysaccharide controls, 50 nM wortmannin
Protocol: as §4, §5

[7] = system: TA3/St murine mammary carcinoma cells; assay: Proliferation in monolayer (anchorage-dependent) culture; assay type: cell-based, mouse; settings: 100-150 μg/ml
[8] = system: TA3/St murine mammary carcinoma cells; settings: soft agar; TA3/St transfectant clones over-expressing the protein; cited from earlier work
[9] = system: MCF-7/Adr drug-resistant human mammary carcinoma cells; assay: Drug resistance, viable cell number (Coulter Counter); assay type: cell-based; settings: MCF-7/Adr; decoys introduced by adenovirus infection, or siRNA (FIG. 18)
Protocol: FIG. 15A is a line graph showing that MCF-7/Adr drug-resistant human mammary carcinoma cells grown in culture with hyaluronan oligomers are sensitized to doxorubicin. MCF-7/Adr cells were obtained from MCF-7 cells by being selected for drug resistance by exposure to doxorubicin. Cells were grown for 24 h in 24-well plates in RPMI 1640 medium containing Glutamex 1 plus 10% fetal bovine serum at 37° in 5% CO2. Various concentrations of doxorubicin (doxo) were then added and the cells incubated for another 72 h, followed by a further 24 h in the presence or absence of 100 μg/ml hyaluronan oligomers (o-HA). The oligomers were a mixed population of 3-8 repeating disaccharides in length. The cells were then harvested and the number of viable cells was determined in a Coulter Counter.
FIG. 18 is a set of line graphs showing a resulting cell number, on the ordinate, following drug treatment with doxorubicin, concentration (log) in nM on the abscissa, showing restoration of drug sensitivity (inhibition of drug resistance) by HA oligomers, soluble hyaluronan-binding decoys, and CD44 siRNA, using derivatives of MCF-7 cells as in FIG. 17 above.
Therefore, the effect of co-treatment with hyaluronan oligomers on drug resistance was examined in an established system, i.e. MCF-7/Adr human mammary carcinoma cells that have been selected for resistance to doxorubicin (Fairchild, C. R., et al., Cancer Res 47, 5141-8, 1987). First, the effect of hyaluronan oligomers on resistance to doxorubicin in the MCF-7/Adr cells versus the relatively drug-sensitive, parental MCF-7 cell line was compared.

Substance	effect on PI3 kinase-α activity [1]	effect on phosphorylation of Akt [2]	effect on apoptosis [3]	effect on caspase-3 activity [4]	effect on PTEN levels (PTEN in TA3/St cells)	effect on PTEN levels (PTEN in TA3/St cells; listed as Chondroitin sulfate (CS))	effect on caspase-3 activity [5]	effect on PI3 kinase-α activity ([6]; 20 μM LY294002, 1:50 antibody to CD44)	effect on PI3 kinase-α activity ([6]; 20 μM LY294002, 1:50 antibody to CD44, listed as chondroitin sulfate (CS))	effect on proliferation [7]	inhibition of anchorage-independent growth [8]	reversal of doxorubicin resistance [9]
chondroitin sulfate	Neither hyaluronan polymer, nor chondroitin sulfate, nor chitin oligomers had a significant effect	not caused	do not have significant effects	no significant effect	do not stimulate PTEN levels	did not increase PTEN levels	no significant effect	Neither hyaluronan polymer, nor chondroitin sulfate, nor chitin oligomers had a significant effect	had no effect	–	–	–
soluble CD44: hyaluronan-binding decoy, over-expressed in cells by transfection or adenovirus	–	–	–	–	–	–	–	–	–	Neither HA oligomers nor soluble CD44 significantly affect proliferation	effective inhibitor	reversed
